According to ChEMBL document CHEMBL1909046, “DrugMatrix in vitro pharmacology data”:

Columns and labels:
Mu-type opioid receptor = Mu-type opioid receptor (Homo sapiens, UniProt P35372); experiment: DRUGMATRIX: Opiate mu (OP3, MOP) radioligand binding (ligand: [3H] Diprenorphine); assay type: cell membranes, CHO-K1, Membrane; details: cho-k1; Not Active = under 50% inhibition at 10 µM
[1] = DRUGMATRIX: ATPase, Na+/K+ enzyme inhibition (substrate: ATP); assay type: tissue-based, Sus scrofa, Heart; details: Not Active = under 50% inhibition at 10 µM
[2] = DRUGMATRIX: beta-Lactamase enzyme inhibition (substrate: Nitrocefin); set-up: species or system Bacillus cereus; details: Not Active = under 50% inhibition at 10 µM
[3] = biological target: T1, Vasoactive intestinal polypeptide receptor 1 (Homo sapiens, UniProt P32241); assay type: cell membranes, Membrane; details: ht-29; further: in other assays of this panel Not Active means under 50% inhibition at 10 µM
T1 sequence (P32241 whole entry): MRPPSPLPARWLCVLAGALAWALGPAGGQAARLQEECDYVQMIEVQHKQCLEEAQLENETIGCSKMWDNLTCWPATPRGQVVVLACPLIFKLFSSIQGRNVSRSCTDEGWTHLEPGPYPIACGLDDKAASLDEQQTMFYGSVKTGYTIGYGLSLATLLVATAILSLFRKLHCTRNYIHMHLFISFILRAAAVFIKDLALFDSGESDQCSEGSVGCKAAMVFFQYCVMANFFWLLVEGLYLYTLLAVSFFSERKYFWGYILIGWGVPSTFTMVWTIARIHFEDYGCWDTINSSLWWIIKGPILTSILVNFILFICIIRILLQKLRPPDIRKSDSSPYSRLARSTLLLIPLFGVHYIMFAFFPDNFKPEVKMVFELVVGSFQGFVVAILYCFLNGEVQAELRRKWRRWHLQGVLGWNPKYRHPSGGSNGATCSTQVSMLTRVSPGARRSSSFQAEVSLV

D(4) dopamine receptor = biological target: T2, D(4) dopamine receptor (Homo sapiens, UniProt P21917); experiment: DRUGMATRIX: Dopamine D4.2 radioligand binding (ligand: [3H] Spiperone); assay type: cell membranes, CHO-K1, Membrane; details: cho-k1; Not Active = under 50% inhibition at 10 µM
T2 sequence (P21917 whole entry): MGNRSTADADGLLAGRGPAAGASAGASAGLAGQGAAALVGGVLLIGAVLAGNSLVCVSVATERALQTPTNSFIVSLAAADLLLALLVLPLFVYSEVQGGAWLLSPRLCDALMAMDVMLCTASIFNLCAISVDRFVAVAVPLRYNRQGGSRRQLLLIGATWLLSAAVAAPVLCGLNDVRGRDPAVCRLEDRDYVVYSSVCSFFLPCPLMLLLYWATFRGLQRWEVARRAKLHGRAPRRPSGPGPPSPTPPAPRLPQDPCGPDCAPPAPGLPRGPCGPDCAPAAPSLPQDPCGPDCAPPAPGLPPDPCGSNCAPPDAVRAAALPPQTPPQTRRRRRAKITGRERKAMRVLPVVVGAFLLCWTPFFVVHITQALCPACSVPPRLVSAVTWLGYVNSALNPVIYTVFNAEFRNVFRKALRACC

[4] = biological target: Prostaglandin G/H synthase 1 (Homo sapiens, UniProt P23219); experiment: biochemical; assay type: tissue-based, Platelet;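 further: inhibition of COX-1 enzyme activity, with arachidonic acid supplied as substrate; in other assays of this panel Not Active means under 50% inhibition at 10 µM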
[5] = biological target: Sodium-dependent dopamine transporter (Homo sapiens, UniProt Q01959); experiment: DRUGMATRIX: Dopamine Transporter radioligand binding (ligand: [125I] RTI-55); assay type: cell membranes, CHO-K1, Membrane; details: Not Active = under 50% inhibition at 10 µM
Sequence of Sodium-dependent dopamine transporter (Q01959 whole entry): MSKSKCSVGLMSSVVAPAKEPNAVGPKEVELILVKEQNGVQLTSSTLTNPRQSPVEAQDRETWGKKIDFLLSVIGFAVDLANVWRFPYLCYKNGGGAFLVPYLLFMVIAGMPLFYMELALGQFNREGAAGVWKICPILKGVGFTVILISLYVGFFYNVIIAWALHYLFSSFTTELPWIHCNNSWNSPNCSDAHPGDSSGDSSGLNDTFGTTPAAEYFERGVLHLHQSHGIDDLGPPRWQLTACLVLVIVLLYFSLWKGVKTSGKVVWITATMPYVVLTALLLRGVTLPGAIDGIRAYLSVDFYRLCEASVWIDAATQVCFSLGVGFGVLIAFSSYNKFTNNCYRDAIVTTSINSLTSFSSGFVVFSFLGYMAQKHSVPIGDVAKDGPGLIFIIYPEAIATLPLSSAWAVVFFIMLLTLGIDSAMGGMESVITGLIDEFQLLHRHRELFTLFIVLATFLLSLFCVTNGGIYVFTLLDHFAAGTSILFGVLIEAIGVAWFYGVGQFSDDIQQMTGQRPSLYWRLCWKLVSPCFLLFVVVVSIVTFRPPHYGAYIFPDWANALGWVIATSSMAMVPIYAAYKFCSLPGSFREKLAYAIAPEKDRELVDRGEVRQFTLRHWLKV

Sequence of Prostaglandin G/H synthase 1 (P23219 whole entry): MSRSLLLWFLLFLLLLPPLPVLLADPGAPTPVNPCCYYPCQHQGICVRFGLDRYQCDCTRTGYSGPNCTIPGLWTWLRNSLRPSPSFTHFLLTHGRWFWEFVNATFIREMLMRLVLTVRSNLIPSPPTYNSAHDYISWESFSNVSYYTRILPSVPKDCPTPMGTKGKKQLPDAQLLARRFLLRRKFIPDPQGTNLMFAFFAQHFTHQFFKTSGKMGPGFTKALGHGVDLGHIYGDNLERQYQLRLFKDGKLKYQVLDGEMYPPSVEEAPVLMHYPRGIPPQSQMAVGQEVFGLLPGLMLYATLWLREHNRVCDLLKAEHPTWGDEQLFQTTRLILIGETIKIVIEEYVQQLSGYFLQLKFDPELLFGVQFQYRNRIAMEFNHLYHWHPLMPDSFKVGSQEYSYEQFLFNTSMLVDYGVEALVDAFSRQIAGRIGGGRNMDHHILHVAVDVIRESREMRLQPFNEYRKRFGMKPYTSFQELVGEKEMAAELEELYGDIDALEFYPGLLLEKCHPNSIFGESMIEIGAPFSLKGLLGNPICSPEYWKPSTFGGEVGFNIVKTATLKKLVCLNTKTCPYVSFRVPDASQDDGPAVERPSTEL
Sequence of Mu-type opioid receptor (P35372 whole entry): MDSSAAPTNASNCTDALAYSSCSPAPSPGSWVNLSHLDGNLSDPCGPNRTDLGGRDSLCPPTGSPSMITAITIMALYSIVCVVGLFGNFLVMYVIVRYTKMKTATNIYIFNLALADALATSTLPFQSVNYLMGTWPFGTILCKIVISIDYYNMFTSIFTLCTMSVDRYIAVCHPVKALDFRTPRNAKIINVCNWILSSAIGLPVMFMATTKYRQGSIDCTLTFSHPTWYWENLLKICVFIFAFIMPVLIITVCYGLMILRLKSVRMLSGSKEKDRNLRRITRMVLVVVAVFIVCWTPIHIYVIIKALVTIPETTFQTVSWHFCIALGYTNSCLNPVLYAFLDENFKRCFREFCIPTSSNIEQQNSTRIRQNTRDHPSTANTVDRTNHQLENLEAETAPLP

Structure (SMILES) | IC50 (Mu-type opioid receptor) | IC50 [1] | Ki [1] | IC50 [2] | Ki [2] | IC50 [3] | IC50 (D(4) dopamine receptor) | IC50 ([4]; platelet) | IC50 ([5]; cho-k1) | IC50 ([4]; read-out: IC50) | IC50 ([5]; read-out: IC50) | Ki ([5]; read-out: Ki)
O=C(CCCN1CC=C(n2c(=O)[nH]c3ccccc32)CC1)c1ccc(F)cc1 [DROPERIDOL] | Not Active | Not Active | Not Active | Not Active | Not Active | Not Active | Not Active | Not Active | Not Active |  |  | 
CC(C)[C@H]1C(=O)N2CCC[C@H]2[C@]2(O)O[C@](NC(=O)[C@@H]3C=C4c5cccc6[nH]cc(c56)C[C@H]4N(C)C3)(C(C)C)C(=O)N12 [ERGOCORNINE] | Not Active | Not Active | Not Active | Not Active | Not Active | Not Active | Not Active | Not Active | Not Active |  |  | 
C[C@]12CC[C@@H]3c4ccc(O)cc4CC[C@H]3[C@@H]1CCC2=O [ESTRONE] | Not Active | Not Active | Not Active | Not Active | Not Active | Not Active | Not Active | Not Active | Not Active |  |  | 
OC(Cn1cncn1)(Cn1cncn1)c1ccc(F)cc1F [FLUCONAZOLE] | Not Active | Not Active | Not Active | Not Active | Not Active | Not Active | Not Active | Not Active | Not Active |  |  | 
CC(C)C(=O)Nc1ccc([N+](=O)[O-])c(C(F)(F)F)c1 [FLUTAMIDE] | Not Active | Not Active | Not Active | Not Active | Not Active | Not Active | Not Active | Not Active | Not Active |  |  | 
N=C(N)NCCN1CCCCCCC1 [GUANETHIDINE] | Not Active | Not Active | Not Active | Not Active | Not Active | Not Active | Not Active | Not Active | Not Active |  |  | 
CC1(C)O[C@@H]2C[C@H]3[C@@H]4CCC5=CC(=O)CC[C@]5(C)[C@@]4(F)[C@@H](O)C[C@]3(C)[C@]2(C(=O)CCl)O1 [HALCINONIDE] | Not Active | Not Active | Not Active | Not Active | Not Active | Not Active | Not Active | Not Active | Not Active |  |  | 
O=c1[nH]c(=O)n([C@H]2C[C@H](O)[C@@H](CO)O2)cc1I [IDOXURIDINE] | Not Active | Not Active | Not Active | Not Active | Not Active | Not Active | Not Active | Not Active | Not Active |  |  | 
CC1Cc2ccccc2N1NC(=O)c1ccc(Cl)c(S(N)(=O)=O)c1 (stereo not given) [INDAPAMIDE] | Not Active | Not Active | Not Active | Not Active | Not Active | Not Active | Not Active | Not Active | Not Active |  |  | 
Nc1nc(N)nc(-c2cc(Cl)ccc2Cl)n1.O=C(O)/C=C\C(=O)O [IRSOGLADINE MALEATE] | Not Active | Not Active | Not Active | Not Active | Not Active | Not Active | Not Active | Not Active | Not Active |  |  | 
CCC(C)n1ncn(-c2ccc(N3CCN(c4ccc(OCC5COC(Cn6cncn6)(c6ccc(Cl)cc6Cl)O5)cc4)CC3)cc2)c1=O (stereo not given) [ITRACONAZOLE] | Not Active | Not Active | Not Active | Not Active | Not Active | Not Active | Not Active | Not Active | Not Active |  |  | 
CCCCN1CCCC[C@H]1C(=O)Nc1c(C)cccc1C [LEVOBUPIVACAINE] | Not Active | Not Active | Not Active | Not Active | Not Active | Not Active | Not Active | Not Active | Not Active |  |  | 
CCCCc1nc(Cl)c(CO)n1Cc1ccc(-c2ccccc2-c2nnn[nH]2)cc1 [LOSARTAN] | Not Active | Not Active | Not Active | Not Active | Not Active | Not Active | Not Active | Not Active | Not Active |  |  | 
Sc1ncnc2nc[nH]c12 [MERCAPTOPURINE ANHYDROUS] | Not Active | Not Active | Not Active | Not Active | Not Active | Not Active | Not Active |  | Not Active | 16200 nM |  | 
C[C@](N)(Cc1ccc(O)c(O)c1)C(=O)O [METHYLDOPA] | Not Active | Not Active | Not Active | Not Active | Not Active | Not Active | Not Active | Not Active | Not Active |  |  | 
C[C@]12CCC(=O)C=C1CC[C@@H]1[C@@H]2CC[C@@]2(C)[C@H]1CC[C@]2(C)O [METHYLTESTOSTERONE] | Not Active | Not Active | Not Active | Not Active | Not Active | Not Active | Not Active | Not Active | Not Active |  |  | 
Cc1ccccc1N1C(=O)c2cc(S(N)(=O)=O)c(Cl)cc2NC1C (stereo not given) [METOLAZONE] | Not Active | Not Active | Not Active | Not Active | Not Active | Not Active | Not Active | Not Active | Not Active |  |  | 
COCCc1ccc(OCC(O)CNC(C)C)cc1 (stereo not given) [METOPROLOL] | Not Active | Not Active | Not Active | Not Active | Not Active | Not Active | Not Active | Not Active | Not Active |  |  | 
CCn1cc(C(=O)O)c(=O)c2cc(F)c(N3CCNCC3)cc21 [NORFLOXACIN] | Not Active | Not Active | Not Active | Not Active | Not Active | Not Active | Not Active | Not Active | Not Active |  |  | 
NC1=NC(=O)C(c2ccccc2)O1 (stereo not given) [PEMOLINE] | Not Active | Not Active | Not Active | Not Active | Not Active | Not Active | Not Active | Not Active |  |  | 521 nM | 414 nM
Nc1nc2c(ncn2CCC(CO)CO)c(=O)[nH]1 [PENCICLOVIR] | Not Active | Not Active | Not Active | Not Active | Not Active | Not Active | Not Active | Not Active | Not Active |  |  | 
C=C(C)C1(O)OC(=O)C=C1OC (stereo not given) [PENICILLIC ACID] | Not Active | Not Active | Not Active | Not Active | Not Active | Not Active | Not Active | Not Active | Not Active |  |  | 
CC1(C)S[C@@H]2[C@H](NC(=O)Cc3ccccc3)C(=O)N2[C@H]1C(=O)O [PENICILLIN G] | Not Active | Not Active | Not Active | Not Active | Not Active | Not Active | Not Active | Not Active | Not Active |  |  | 
CCCN1C[C@H](CSC)C[C@@H]2c3cccc4[nH]cc(c34)C[C@H]21 [PERGOLIDE] | Not Active | Not Active | Not Active | Not Active | Not Active | Not Active | Not Active | Not Active | Not Active |  |  | 
C1CCC(C(CC2CCCCN2)C2CCCCC2)CC1 (stereo not given) [PERHEXILINE] | Not Active | Not Active | Not Active | Not Active | Not Active | Not Active | Not Active | Not Active | Not Active |  |  | 
CCOc1ccc(NC(C)=O)cc1 [PHENACETIN] | Not Active | Not Active | Not Active | Not Active | Not Active | Not Active | Not Active | Not Active | Not Active |  |  | 
